The values below come from patent US20090004677A1, “QUANTITATIVE DETERMINATION OF BCL10” (The Board of Trustees of the University of Illinois, priority 2007, published 2009).

Each structure is given as a SMILES string.

For one test, the system named is IL-8. Put plainly: ELISA for IL-8 in spent media of NCM460 cells. The format is cell-based, human. (In general: In an ELISA, binding on a coated surface is turned into a signal by an enzyme label.)
Another test relates to Bcl10. In words: solid-phase sandwich ELISA for Bcl10 in NCM460 cells. The format is cell-based, human.
Setting [1] is: NCM460 cells, 50 μM inhibitor 2 hours prior to 6 hours LPS 10 ng/ml.
Setting [2] is: human IEC, LPS 10 ng/ml for 2-6 hours.

Procedure for Bcl10: NCM460 and primary colon cells were treated with different concentrations (1, 10 and 20 ng/ml) of lipopolysaccharide (LPS; from E. coli 026:B6, #L2654, Sigma-Aldrich, St. Louis, Mo.) for durations of 2, 4, 6, or 24 hours. The endotoxin level of the LPS from E. coli was reported as 500,000 EU (Endotoxin Units)/mg LPS. The secretion of IL-8 and the cellular content of Bcl10 and phospho-IκBα proteins in response to these treatments were assayed. […] A second LPS (from Salmonella enterica serotype Minnesota; #L4641, Sigma-Aldrich, St. Louis, Mo.) was also used for some of the experiments. The endotoxin level of the batch of Salmonella enterica was reported as 800,000 EU/mg LPS.
The expression of Bcl10 in NCM460 cells or primary colon cells was determined by a solid-phase sandwich ELISA designed to quantify cellular Bcl10. Control or treated cells were lysed in RIPA buffer (50 mM Tris-HCl containing 0.15 M NaCl, 1% Nonidet P40, 0.5% deoxycholic acid and 0.1% SDS, pH 7.4) and the cell extracts were stored at −80° C. until assayed. Bcl10 molecules in the samples or standards were captured in the wells of a microtiter plate pre-coated with rabbit polyclonal antibody to Bcl10 (QED Bioscience Inc., San Diego, Calif.). Immobilized Bcl10 molecules were detected by a mouse monoclonal antibody to Bcl10 (Novus Biologicals, Littleton, Colo.) and goat anti-mouse IgG-horseradish peroxidase (HRP) complex (Santa Cruz Biotechnology, Santa Cruz, Calif.). The peroxidase enzyme activity bound to Bcl10 molecules was determined by chromogenic reaction with hydrogen peroxide/tetramethylbenzidine. Color development due to enzymatic activity was stopped by 2N sulfuric acid, and intensity of the color was measured at 450 nm in ELISA Plate reader (SLT, Spectra). Bcl10 concentrations of the samples were extrapolated from a standard curve derived using known concentrations of recombinant Bcl10 (Calbiochem, EMD Bioscience, San Diego, Carlsbad, Calif.). Sample values were normalized with the total cell protein concentrations determined by BCA™ Protein assay kit (Pierce, Rockford, Ill.). […]
Procedure for IL-8: NCM460 and primary colon cells were treated with different concentrations (1, 10 and 20 ng/ml) of lipopolysaccharide (LPS; from E. coli 026:B6, #L2654, Sigma-Aldrich, St. Louis, Mo.) for durations of 2, 4, 6, or 24 hours. The endotoxin level of the LPS from E. coli was reported as 500,000 EU (Endotoxin Units)/mg LPS. The secretion of IL-8 and the cellular content of Bcl10 and phospho-IκBα proteins in response to these treatments were assayed. In the majority of experiments, LPS 10 ng/ml for 6 hours was selected as the optimal dose and duration. A second LPS (from Salmonella enterica serotype Minnesota; #L4641, Sigma-Aldrich, St. Louis, Mo.) was also used for some of the experiments. The endotoxin level of the batch of Salmonella enterica was reported as 800,000 EU/mg LPS.
The secretion of IL-8 in the spent media of control and treated NCM460 cells and primary colon cells was measured by the DuoSet Enzyme-linked Immunosorbent Assay (ELISA) kit for human IL-8 (R&D Systems Inc, Minneapolis, Minn.), according to the manufacturer's instructions. The IL-8 in the spent media was captured into the wells of a microtiter plate pre-coated with specific anti-IL-8 monoclonal antibody. Immobilized IL-8 was then detected by biotin-conjugated secondary IL-8 antibody and Streptavidin-HRP. Hydrogen peroxide/tetramethylbenzidine chromogenic substrate was used to develop the color and the intensity of color was measured at 450 nm with a reference filter of 570 nm in an ELISA plate reader (SLT, Spectra). The IL-8 concentrations were extrapolated from a standard curve plotted using known concentrations of IL-8. The sample values were normalized with total protein content (BCA™ Protein assay kit; Pierce, Rockford, Ill.) and expressed as pg or ng/mg cellular protein.

As for `O=C(Nc1nc2ccccc2n1CCN1CCOCC1)c1cccc([N+](=O)[O-])c1` [IRAK 1/4 inhibitor, N-(2-morpholinylethyl)-2-(3-nitrobenzoylamido)-benzimidazole], in the test on IL-8 (setting [1]), the “IL-8 after LPS with IRAK 1/4 inhibitor” value came out at 1.14 ± 0.08 ng/mL and the “decline of the LPS-induced increase in IL-8 response” value is given as 60%. The “effect on the LPS-induced increase in IL-8 (result in words)” value in the test on IL-8 (setting [2]) is reported as “eliminated”. Further, in the test with Bcl10 (setting [1]), the “Bcl10 after LPS with IRAK 1/4 inhibitor” value was determined as 2.36 ± 0.08 ng/mL and the “decline of the LPS-induced increase in Bcl10” value amounted to 73%. Besides, the “effect on the LPS-induced increase in Bcl10 (result in words)” value in the test on Bcl10 (setting [2]) is “eliminated”.
